In patent US12421253B2 (Mirati Therapeutics, Inc., priority 2020, dated 2025):
pIC50: −log10 of the molar value.

Experiments:
KRas^G13D = KRas^G13D (Homo sapiens, UniProt P01116, G13D); experiment: biochemical
KRas^G12D = biological target: T1, KRas^G12D (Homo sapiens, UniProt P01116, G12D); experiment: KRas binding assay (TR-FRET displacement of Cy5 labelled tracer)
T1 construct: […]; biotin (biotinylated); purchased Accelegan Inc

KRas^Q61H = KRas^Q61H (Homo sapiens, UniProt P01116, Q61H); experiment: biochemical
KRas^G12S = biological target: T2, KRas^G12S (Homo sapiens, UniProt P01116, G12S); experiment: KRas binding assay (TR-FRET displacement of Cy5 labelled tracer)
T2 construct: […]; biotin (biotinylated); purchased Accelegan Inc

KRas^WT = biological target: T3, KRas^WT (Homo sapiens, UniProt P01116); experiment: as above
T3 construct: […]; biotin (biotinylated); purchased Accelegan Inc

KRas^G12C = KRas^G12C (Homo sapiens, UniProt P01116, G12C); experiment: biochemical
KRas^G12V = biological target: T4, KRas^G12V (Homo sapiens, UniProt P01116, G12V); experiment: KRas binding assay (TR-FRET displacement of Cy5 labelled tracer)
T4 construct: […]; biotin (biotinylated); purchased Accelegan Inc

KRas^G12R = biological target: T5, KRas^G12R (Homo sapiens, UniProt P01116, G12R); experiment: as above
T5 construct: […]; biotin (biotinylated); purchased Accelegan Inc

KRas^G12A = biological target: T6, KRas^G12A (Homo sapiens, UniProt P01116, G12A); experiment: as above
T6 construct: […]; biotin (biotinylated); purchased Accelegan Inc
T6 sequence (P01116 1-169 isoform P01116-2 G12A): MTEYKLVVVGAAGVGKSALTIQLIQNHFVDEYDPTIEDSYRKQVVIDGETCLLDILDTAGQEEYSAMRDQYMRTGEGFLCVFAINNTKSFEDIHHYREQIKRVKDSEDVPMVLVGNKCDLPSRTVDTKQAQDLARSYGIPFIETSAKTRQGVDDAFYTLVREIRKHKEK

Chain of KRas^G12C (P01116 1-169 isoform P01116-2 G12C): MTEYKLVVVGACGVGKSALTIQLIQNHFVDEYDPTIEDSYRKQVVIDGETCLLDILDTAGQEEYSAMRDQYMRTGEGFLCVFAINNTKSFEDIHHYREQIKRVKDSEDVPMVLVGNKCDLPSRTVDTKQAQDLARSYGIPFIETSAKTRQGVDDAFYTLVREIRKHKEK
T4 sequence (P01116 1-169 isoform P01116-2 G12V): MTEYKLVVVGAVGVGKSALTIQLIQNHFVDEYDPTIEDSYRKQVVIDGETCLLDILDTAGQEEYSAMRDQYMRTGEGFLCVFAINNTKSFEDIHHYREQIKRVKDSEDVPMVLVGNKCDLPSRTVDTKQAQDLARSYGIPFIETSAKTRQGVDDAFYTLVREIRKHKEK
T3 sequence (P01116 1-169 isoform P01116-2): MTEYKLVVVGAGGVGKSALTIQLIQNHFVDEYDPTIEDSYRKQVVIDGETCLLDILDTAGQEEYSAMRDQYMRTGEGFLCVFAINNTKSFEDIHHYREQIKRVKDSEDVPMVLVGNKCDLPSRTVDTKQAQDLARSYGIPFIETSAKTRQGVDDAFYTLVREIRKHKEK
T5 sequence (P01116 1-169 isoform P01116-2 G12R): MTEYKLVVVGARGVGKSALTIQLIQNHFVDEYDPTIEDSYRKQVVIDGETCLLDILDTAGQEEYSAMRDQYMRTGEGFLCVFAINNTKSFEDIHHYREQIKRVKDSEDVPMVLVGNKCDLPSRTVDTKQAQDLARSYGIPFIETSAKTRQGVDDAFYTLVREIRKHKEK
Chain of KRas^Q61H (P01116 1-169 isoform P01116-2 Q61H): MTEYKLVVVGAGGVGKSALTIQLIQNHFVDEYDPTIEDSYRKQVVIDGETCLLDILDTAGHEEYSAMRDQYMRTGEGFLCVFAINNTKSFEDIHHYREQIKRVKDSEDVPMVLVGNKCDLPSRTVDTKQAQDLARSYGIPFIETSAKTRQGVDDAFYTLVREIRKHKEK
T1 sequence (P01116 1-169 isoform P01116-2 G12D): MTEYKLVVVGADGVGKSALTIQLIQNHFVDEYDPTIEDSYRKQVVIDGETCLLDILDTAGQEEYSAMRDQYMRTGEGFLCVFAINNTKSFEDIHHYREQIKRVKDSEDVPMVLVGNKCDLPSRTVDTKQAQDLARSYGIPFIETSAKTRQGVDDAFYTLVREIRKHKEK
T2 sequence (P01116 1-169 isoform P01116-2 G12S): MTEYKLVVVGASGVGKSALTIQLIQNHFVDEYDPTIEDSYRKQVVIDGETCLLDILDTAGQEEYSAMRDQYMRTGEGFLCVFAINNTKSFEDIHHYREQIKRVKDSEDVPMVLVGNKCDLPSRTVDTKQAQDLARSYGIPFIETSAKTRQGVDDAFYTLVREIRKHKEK
Chain of KRas^G13D (P01116 1-169 isoform P01116-2 G13D): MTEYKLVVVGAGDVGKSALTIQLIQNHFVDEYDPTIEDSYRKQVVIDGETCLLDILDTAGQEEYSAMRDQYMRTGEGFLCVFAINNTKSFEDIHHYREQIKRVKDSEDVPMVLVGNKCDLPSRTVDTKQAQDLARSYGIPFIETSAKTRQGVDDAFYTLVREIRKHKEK

pIC50 (KRas^G13D)	pIC50 (KRas^G12D)	pIC50 (KRas^Q61H)	pIC50 (KRas^G12S)	pIC50 (KRas^WT)	pIC50 (KRas^G12C)	pIC50 (KRas^G12V)	pIC50 (KRas^G12R)	pIC50 (KRas^G12A)	SMILES
5.32	5.01	5.34	5.29	5.32	5.38	5.14	5.33	5.26	CCc1cccc2cccc(N3CCc4c(nc(OCC56CCCN5CCC6)nc4N4CCCC(c5nnc(CO)n5C)C4)C3)c12 (stereo not drawn) [Example 166, (5-(1-(7-(8-ethylnaphthalen-1-yl)-2-((tetrahydro-1H-pyrrolizin-7a(5H)-yl)methoxy)-5,6,7,8-tetrahydropyrido[3,4-d]pyrimidin-4-yl)piperidin-3-yl)-4-methyl-4H-1,2,4-triazol-3-yl)methanol]
5.47	5.12	5.40	5.46	5.39	5.42	5.08	5.55	5.28	CCc1cccc2cccc(N3CCc4c(nc(OCC56CCCN5CCC6)nc4N4CCCC(c5nc(C)no5)C4)C3)c12 (stereo not drawn) [Example 162, 5-(1-(7-(8-ethylnaphthalen-1-yl)-2-((tetrahydro-1H-pyrrolizin-7a(5H)-yl)methoxy)-5,6,7,8-tetrahydropyrido[3,4-d]pyrimidin-4-yl)piperidin-3-yl)-3-methyl-1,2,4-oxadiazole]
6.13	5.98	6.11	6.10	6.01	6.09	6.25	6.08	6.19	CCc1cccc2cccc(N3CCc4c(nc(OCC56CCCN5CCC6)nc4N4CCCCC(C)C4)C3)c12 (stereo not drawn) [Example 119]
6.43	7.17	6.54	7.00	6.77	7.09	7.09	7.13	6.77	CCc1cccc2cccc(N3CCc4c(nc(OCC56CCCN5CCC6)nc4N4CCCn5nc(N)cc5C4)C3)c12 [Example 10, 5-(7-(8-ethylnaphthalen-1-yl)-2-((tetrahydro-1H-pyrrolizin-7a(5H)-yl)methoxy)-5,6,7,8-tetrahydropyrido[3,4-d]pyrimidin-4-yl)-5,6,7,8-tetrahydro-4H-pyrazolo[1,5-a][1,4]diazepin-2-amine]
5.81	5.52	5.95	5.90	5.91	6.00	6.02	6.47	5.90	CCc1cccc2cccc(N3CCc4c(nc(OCC56CCCN5CCC6)nc4N4CCCC(c5ccno5)C4)C3)c12 (stereo not drawn) [Example 99, 5-(1-(7-(8-ethylnaphthalen-1-yl)-2-((tetrahydro-1H-pyrrolizin-7a(5H)-yl)methoxy)-5,6,7,8-tetrahydropyrido[3,4-d]pyrimidin-4-yl)piperidin-3-yl)isoxazole]
5.08	4.45	5.16	5.15	5.17	5.75	5.51	5.62	5.39	CCc1cccc2cccc(N3CCc4c(nc(OCC56CCCN5CCC6)nc4NCCNc4ncccc4C#N)C3)c12 [Example 154, 2-((2-((7-(8-ethylnaphthalen-1-yl)-2-((tetrahydro-1H-pyrrolizin-7a(5H)-yl)methoxy)-5,6,7,8-tetrahydropyrido[3,4-d]pyrimidin-4-yl)amino)ethyl)amino)nicotinonitrile]
5.55	5.39	5.55	5.62	5.55	5.71	5.54	6.07	5.57	CCc1cccc2cccc(N3CCc4c(nc(OCC56CCCN5CCC6)nc4N4CCCC(c5ncc(C)s5)C4)C3)c12 (stereo not drawn) [Example 135, 2-(1-(7-(8-ethylnaphthalen-1-yl)-2-((tetrahydro-1H-pyrrolizin-7a(5H)-yl)methoxy)-5,6,7,8-tetrahydropyrido[3,4-d]pyrimidin-4-yl)piperidin-3-yl)-5-methylthiazole]
5.97	5.65	5.84	6.12	5.85	6.43	5.89	5.75	6.20	CCc1cccc2cccc(N3CCc4c(nc(OCC56CCCN5CCC6)nc4N4CCCC(c5nnc6n5CCC6)C4)C3)c12 (stereo not drawn) [Example 106, 4-(3-(6,7-dihydro-5H-pyrrolo[2,1-c][1,2,4]triazol-3-yl)piperidin-1-yl)-7-(8-ethylnaphthalen-1-yl)-2-((tetrahydro-1H-pyrrolizin-7a(5H)-yl)methoxy)-5,6,7,8-tetrahydropyrido[3,4-d]pyrimidine]
6.24	5.14	7.19	5.88	6.39	5.81	5.80	5.68	5.87	CCc1cccc2cccc(N3CCc4c(nc(OCC56CCCN5CCC6)nc4N4CCCC(P(C)(C)=O)C4)C3)c12 (stereo not drawn) [Example 112, (1-(7-(8-ethylnaphthalen-1-yl)-2-((tetrahydro-1H-pyrrolizin-7a(5H)-yl)methoxy)-5,6,7,8-tetrahydropyrido[3,4-d]pyrimidin-4-yl)piperidin-3-yl)dimethylphosphine oxide]
6.25	6.22	6.22	6.41	6.33	6.34	6.43	6.34	6.42	CCc1cccc2cccc(N3CCc4c(nc(OCC56CCCN5CCC6)nc4N4CC(C)CC(C(N)=O)C4)C3)c12 (stereo not drawn) [Example 105, 1-(7-(8-ethylnaphthalen-1-yl)-2-((tetrahydro-1H-pyrrolizin-7a(5H)-yl)methoxy)-5,6,7,8-tetrahydropyrido[3,4-d]pyrimidin-4-yl)-5-methylpiperidine-3-carboxamide]
5.89	5.39	5.80	6.01	5.81	6.31	6.02	6.42	6.18	CCc1cccc2cccc(N3CCc4c(nc(OCC56CCCN5CCC6)nc4N4CCCC(c5n[nH]c(C6CC6)n5)C4)C3)c12 (stereo not drawn) [Example 108, 4-(3-(5-cyclopropyl-1H-1,2,4-triazol-3-yl)piperidin-1-yl)-7-(8-ethylnaphthalen-1-yl)-2-((tetrahydro-1H-pyrrolizin-7a(5H)-yl)methoxy)-5,6,7,8-tetrahydropyrido[3,4-d]pyrimidine]
5.75	5.38	5.70	5.95	5.80	6.05	6.07	6.44	6.12	CCc1cccc2cccc(N3CCc4c(nc(OCC56CCCN5CCC6)nc4N4CCCC(c5nc(=O)[nH][nH]5)C4)C3)c12 (stereo not drawn) [Example 104, 5-(1-(7-(8-ethylnaphthalen-1-yl)-2-((tetrahydro-1H-pyrrolizin-7a(5H)-yl)methoxy)-5,6,7,8-tetrahydropyrido[3,4-d]pyrimidin-4-yl)piperidin-3-yl)-1,2-dihydro-3H-1,2,4-triazol-3-one]
5.95	5.15	6.03	6.14	6.02	6.33	6.23	6.66	6.37	CCc1cccc2cccc(N3CCc4c(nc(OCC56CCCN5CCC6)nc4N4CCC(OCC(N)=O)CC4)C3)c12 [Example 89, 2-((1-(7-(8-ethylnaphthalen-1-yl)-2-((tetrahydro-1H-pyrrolizin-7a(5H)-yl)methoxy)-5,6,7,8-tetrahydropyrido[3,4-d]pyrimidin-4-yl)piperidin-4-yl)oxy)acetamide]
5.49	4.80	5.61	5.67	5.66	5.89	5.62	6.12	5.53	CCc1cccc2cccc(N3CCc4c(nc(OCC56CCCN5CCC6)nc4N4CC(CO)OC5(CCC5)C4)C3)c12 (stereo not drawn) [Example 129, (8-(7-(8-ethylnaphthalen-1-yl)-2-((tetrahydro-1H-pyrrolizin-7a(5H)-yl)methoxy)-5,6,7,8-tetrahydropyrido[3,4-d]pyrimidin-4-yl)-5-oxa-8-azaspiro[3.5]nonan-6-yl)methanol]
5.00	5.35	4.96	5.17	5.06	5.37	5.59	5.12	5.03	CCc1cccc2cccc(N3CCc4c(nc(OCC56CCCN5CCC6)nc4NCCNS(N)(=O)=O)C3)c12 [Example 160, N-(2-((7-(8-ethylnaphthalen-1-yl)-2-((tetrahydro-1H-pyrrolizin-7a(5H)-yl)methoxy)-5,6,7,8-tetrahydropyrido[3,4-d]pyrimidin-4-yl)amino)ethyl)sulfamide]
5.16	4.37	5.20	5.48	5.32	5.73	5.85	5.74	5.60	CCc1cccc2cccc(N3CCc4c(nc(OCC56CCCN5CCC6)nc4N4CC5(CNC(=O)N5)C4)C3)c12 [Example 149, 2-(7-(8-ethylnaphthalen-1-yl)-2-((tetrahydro-1H-pyrrolizin-7a(5H)-yl)methoxy)-5,6,7,8-tetrahydropyrido[3,4-d]pyrimidin-4-yl)-2,5,7-triazaspiro[3.4]octan-6-one]
